Like-named read-outs stand apart in the source and are kept apart here.
Legend:
[1] = system: murine bone marrow-derived mast cells (BMMCs); test: In vitro release of Interleukin-6 (IL-6) from IgE-preloaded murine bone marrow-derived mast cells (ELISA); type: cell-based, mice; details: Mus musculus, BMMC, 3 h; read-out: percentage of inhibition of IL-6 release
Experimental: According to the technique established by Razin et al. (Proc. Natl. Acad. Sci. USA 1981, 78:2559-2561), bone marrow cells (1×10^6/ml) from 6 to 8 week old mice (129/Sv×C57BL/6) were cultured (37° C. and 5% CO2) as single cell suspensions in RPMI 1640 medium (Sigma-Aldrich, Munich, Germany) supplemented with 15% fetal calf serum (FCS), 1% X63Ag8-653-conditioned medium (Karasuyama and Melchers, Eur. J. Immunol. 1988, 18:97-104), 2 mM L-glutamine, 10 μM β-mercaptoethanol, 50 units/ml penicillin, and […] streptomycin. At weekly intervals, the non-adherent cells were reseeded at 5×10^5 cells/ml in fresh medium. After 4-6 weeks in culture, greater than 99% of the cells were KIT- and […] as assessed by fluorescence-activated cell sorting (FACS) using phycoerythrin-labeled anti-KIT antibodies (Pharmingen, Mississauga, Canada) and fluorescein isothiocyanate (FITC)-labelled hamster anti-mouse FcεRIα antibodies (eBioscience, Frankfurt, Germany), respectively. The resulting cells are called bone marrow-derived mast cells (BMMCs).
For degranulation studies, BMMCs were preloaded with 0.15 μg/ml IgE anti-DNP (dinitrophenyl; Sigma Aldrich, Munich, Germany) overnight at 37° C. The cells were then washed and resuspended in Tyrode's buffer (130 mM NaCl, 5 mM KCl, 1.4 mM CaCl2, 1 mM MgCl2, 5.6 mM glucose, and 0.1% bovine serum albumin (BSA) in 10 mM Hepes, pH 7.4).
Subsequently, the cells were left unstimulated (unst) or stimulated with 20 ng/ml Ag (dissolved in medium) for 3 h. Subsequently, the cells were pelleted by centrifugation and the resulting cell pellet was discarded. For the determination of the amount of degranulated IL-6, the respective supernatant obtained by centrifugation was subjected to an IL-6 ELISA according to the manufacturer's instructions (BD, Heidelberg, Germany). Experiments were performed in triplicate.

[2] = system: human nasal tissue mast cells activated with LPS; test: Ex vivo LPS-induced tryptase release (degranulation) of human nasal tissue mast cells; type: cell-based; details: for Tryptase: with LPS; for inhibition at 3 µM / inhibition at 10 µM / inhibition at 30 µM / inhibition at 60 µM / IC50: Homo sapiens, Mast cell; for inhibition at 3 µM / inhibition at 10 µM / inhibition at 30 µM / inhibition at 60 µM: read-out: percentage inhibition of degranulation (tryptase); for IC50: read-out: IC50 ex vivo inhibition of tryptase release; for HillSlope / LogIC50: LPS
From the text: Fresh human nasal mucosa was used (middle nasal turbinate), which was surgically removed as standard procedure during nose correction surgeries (septorhinoplasty with conchotomy). Only tissues from those patients who had not previously received medication in the form of cortisone preparations or antihistamines were used. The removed tissue was cleansed immediately after the surgical removal with Epilife Medium (Thermo Fisher Scientific, No. […]500), referred to as “medium” in terms of ex vivo experiments, a chemically defined, serum-free full medium for epithelial cells and keratinocytes. The tissue was then cut into 12 pieces of equal size, cleansed again in the medium, and the exact fresh weight of the cut tissue pieces was determined for later normalization and then stored overnight in cold medium. The weight of the tissue pieces varied between 10 and 20 mg.
After an one hour of pre-incubation with the respective compositions i), ii) or iii), 4 μg/ml lipopolysaccharide (LPS, Sigma-Aldrich GmbH, L4516) was added to each well—except for one well serving as the negative control—in order to induce tryptase degranulation. Then, 250 μl supernatant were taken from each well at the time points of 15 minutes, 60 minutes (one hour), 120 minutes (two hours), 240 minutes (four hours), 480 minutes (eight hours), and 1200 minutes (20 hours) after stimulation with LPS and the supernatants were directly frozen. Immediately after the removal of 250 μl supernatant, the volume in each well was increased to the original level and the original composition by adding 250 μl of the respective composition i), ii) and iii).
For the determination of the amount of degranulated tryptase, the frozen supernatants were thawed at 22° C. and then subjected to a tryptase ELISA Kit from Boster Biological Technology Co., Ltd (No. EZ0898, Assay Range: 156-10000 pg/ml, Sensitivity: <15 pg/ml) according to manufacturer's instructions, and the ELISA measurements were performed with the Multiskan Go instrument from Thermo Scientific and the SkanIt Re 4.1 software.
The statistical analysis was conducted in two steps. In a first step, the raw measurement values were normalized to 10 mg tissue. In a second step, a correction factor was introduced for all time points of supernatant removal to compensate for the 250 μl supernatant taken for analysis at each time and the subsequent re-addition of medium incl. factors. The statistical calculations were performed with Microsoft Excel 2010.
For the analysis, a non-linear regression (variable slope—4-parametric) was used. The program setting “Dose-Response-Inhibition” was applied for an automatic calculation, readout and display of the IC50 values.

[3] = system: patient with therapy-resistant systemic mastocytosis; test: Human in-vivo off-label clinical test, symptom intensity by visual analog score (VAS)
Experimental: The results of the clinical test were closely monitored, captured and documented together with patient. The patient is and diagnosed with systemic mastocytosis (WHO criteria, KIT816V positiv) with official diagnosis. […] The current daily treatment of the patient is: H1 antihistamine 3× daily, cromolyn 4×200 mg daily, PPI 110 mg daily, Vitamine C/Vitamine D upon need, Actonel, upon need decortin 40 to 60 mg.

**Q.** What does the source list for `CCNC1=Nc2ccc(Cl)cc2C(C)(c2ccccc2)O1` (racemic) [Etifoxine, 6-Chloro-2-N-ethyl-4-methyl-4-phenyl-4H-3,1-benzoxazine-2-amine]?
**A.** inhibition at 3 µM [1]: 20%; inhibition at 10 µM [1]: 48%; inhibition at 30 µM [1]: 92%; Tryptase ([2]; 3 μM Etifoxine, 15 min): 1107.7 pg/ml/10 mg tissue; Tryptase ([2]; 3 μM Etifoxine, 60 min): 1822.9 pg/ml/10 mg tissue; Tryptase ([2]; 3 μM Etifoxine, 120 min): 2116.7 pg/ml/10 mg tissue; Tryptase ([2]; 3 μM Etifoxine, 240 min): 3032.7 pg/ml/10 mg tissue; Tryptase ([2]; 3 μM Etifoxine, 480 min): 3622.0 pg/ml/10 mg tissue; Tryptase ([2]; 3 μM Etifoxine, 1200 min): 5419.5 pg/ml/10 mg tissue; Tryptase ([2]; 10 μM Etifoxine, 15 min): 763.6 pg/ml/10 mg tissue; Tryptase ([2]; 10 μM Etifoxine, 60 min): 1252.6 pg/ml/10 mg tissue; Tryptase ([2]; 10 μM Etifoxine, 120 min): 2035.3 pg/ml/10 mg tissue; Tryptase ([2]; 10 μM Etifoxine, 240 min): 2901.8 pg/ml/10 mg tissue; Tryptase ([2]; 10 μM Etifoxine, 480 min): 3275.1 pg/ml/10 mg tissue; Tryptase ([2]; 10 μM Etifoxine, 1200 min): 4687.0 pg/ml/10 mg tissue; Tryptase ([2]; 30 μM Etifoxine, 15 min): 676.0 pg/ml/10 mg tissue; Tryptase ([2]; 30 μM Etifoxine, 60 min): 857.5 pg/ml/10 mg tissue; Tryptase ([2]; 30 μM Etifoxine, 120 min): 1619.4 pg/ml/10 mg tissue; Tryptase ([2]; 30 μM Etifoxine, 240 min): 2276.4 pg/ml/10 mg tissue; Tryptase ([2]; 30 μM Etifoxine, 480 min): 2678.2 pg/ml/10 mg tissue; Tryptase ([2]; 30 μM Etifoxine, 1200 min): 3675.9 pg/ml/10 mg tissue; Tryptase ([2]; 60 μM Etifoxine, 15 min): 881.1 pg/ml/10 mg tissue; Tryptase ([2]; 60 μM Etifoxine, 60 min): 1054.5 pg/ml/10 mg tissue; Tryptase ([2]; 60 μM Etifoxine, 120 min): 1592.2 pg/ml/10 mg tissue; Tryptase ([2]; 60 μM Etifoxine, 240 min): 2241.2 pg/ml/10 mg tissue; Tryptase ([2]; 60 μM Etifoxine, 480 min): 2720.1 pg/ml/10 mg tissue; Tryptase ([2]; 60 μM Etifoxine, 1200 min): 3472.1 pg/ml/10 mg tissue; inhibition at 3 µM ([2]; 2 h): 79%; inhibition at 10 µM ([2]; 2 h): 83%; inhibition at 30 µM ([2]; 2 h): 105%; inhibition at 60 µM ([2]; 2 h): 106%; inhibition at 3 µM ([2]; 4 h): 104%; inhibition at 10 µM ([2]; 4 h): 107%; inhibition at 30 µM ([2]; 4 h): 123%; inhibition at 60 µM ([2]; 4 h): 124%; IC50 ([2]; 2 hours (120 minutes) after LPS addition): 14.7 µM; IC50 ([2]; 4 hours (240 minutes) after LPS addition): 15.1 µM; HillSlope ([2]; Tryptase 2 h): −4.183; LogIC50 ([2]; Tryptase 2 h): 1.168; HillSlope ([2]; Tryptase 4 h): −4.101; LogIC50 ([2]; Tryptase 4 h): 1.179; inhibition of LPS-triggered tryptase degranulation achieved (complete) ([2]; summary statement, mast cells of human nasal pieces): 100%; total clinical symptom intensity score (VAS) ([3]; after 6 weeks treatment, VAS baseline value 8, scale 0-10): 4; side effects ([3]; during the 6 week oral treatment, one patient): No side effects occurred; reduction of total clinical symptom intensity score ([3]; one patient, oral 50 to 150 mg daily, over 6 weeks): 50%

Source: patent US20220265667A1 (priority 2019, published 2022)
